The source of these data is the SangsterLogP compilation.

SMILES strings stand for the structures.

A word on the logP: it is a log measure of how a compound divides between an organic and an aqueous phase. Read a high logP as higher lipophilicity. Take `CNc1ccc(-c2nc3ccc(O)cc3s2)cc1I`: the logP came out at 2.35.

As to `COCOc1ccc2nc(-c3ccc(N)c(I)c3)sc2c1`, the logP worked out at 3.03.

The compound `COC(=O)c1ccc2nc(-c3ccc(N)c(I)c3)sc2c1` displayed a log partition coefficient (logP) of 3.29.

Regarding `COc1ccc2nc(-c3ccc(O)cc3)sc2c1`, the lipophilicity (logP) stood at 1.8.

`COc1ccc(-c2nc3ccc(N)cc3s2)cc1` yielded a logP of 1.76.

On to `COc1ccc2nc(-c3ccc(N)cc3)sc2c1`, for which the logP came to 1.87.

Compound `COc1ccc(-c2nc3ccc(N)c(I)c3s2)cc1` registered a lipophilicity (logP) of 2.95.

Regarding `CNc1ccc(-c2nc3ccc(OC)cc3s2)cc1`, the log partition coefficient (logP) amounted to 2.58.

The compound `Nc1ccc(-c2nc3ccccc3s2)cc1I` had a logP of 3.17.

The compound `Oc1ccc(-c2nc3ccc(O)c(I)c3s2)cc1` returned a logP of 1.01.

Regarding `COc1ccc(-c2nc3ccc(O)c(I)c3s2)cc1`, the lipophilicity (logP) was 2.49.

As for `Nc1ccc(-c2nc3ccc([N+](=O)[O-])cc3s2)cc1`, the logP stood at 2.21.

Compound `Nc1ccc(-c2nc3ccc([N+](=O)[O-])cc3s2)cc1I` came in with a logP of 3.33.

In turn, `Nc1ccc(-c2nc3ccc(Br)cc3s2)cc1I` had a lipophilicity (logP) of 4.11.

`CNc1ccc(-c2nc3ccc([N+](=O)[O-])cc3s2)cc1I`: the logP stood at 4.08.

`CNc1ccc(-c2nc3ccc(Br)cc3s2)cc1I`: the log partition coefficient (logP) was found to be 4.86.

On to `Nc1ccc(-c2nc3ccc(O)cc3s2)cc1I`, for which the logP came to 1.65.

For the compound `COc1ccc2nc(-c3ccc(N)c(I)c3)sc2c1`, the logP worked out at 3.08.

As for `COCOc1ccc2nc(-c3ccc(N)cc3)sc2c1`, the log partition coefficient (logP) is 1.86.

Turning to `Nc1ccc(-c2nc3ccc(Br)cc3s2)cc1`, the logP amounted to 2.87.

Turning to `Oc1ccc(-c2nc3ccccc3s2)cc1`, the logP was found to be 1.86.

For `CNc1ccc(-c2nc3ccccc3s2)cc1I`, the logP was 3.9.

Consider `CNc1ccc(-c2nc3ccc(Br)cc3s2)cc1`, for which the logP came out at 3.64.

On to `Oc1ccc2nc(-c3ccc(O)c(I)c3)sc2c1`, for which the log partition coefficient (logP) turned out to be 1.09.

`COc1ccc(-c2nc3ccc(O)cc3s2)cc1` showed a logP of 1.75.

The compound `CNc1ccc(-c2nc3ccc([N+](=O)[O-])cc3s2)cc1` gave a logP of 2.96.

As for `Nc1ccc2nc(-c3ccc(O)cc3)sc2c1I`, the log partition coefficient (logP) came to 1.6.

Regarding `Oc1ccc(-c2nc3ccccc3s2)cc1I`, the log partition coefficient (logP) stood at 2.22.

For `CNc1ccc(-c2nc3ccc(OC)cc3s2)cc1I`, the lipophilicity (logP) was found to be 3.8.

The compound `COc1ccc2nc(-c3ccc(O)c(I)c3)sc2c1` displayed a logP of 2.31.

As to `COC(=O)c1ccc2nc(-c3ccc(N)cc3)sc2c1`, the logP is 2.07.

Take `Nc1ccc(-c2nc3ccccc3s2)cc1`: the logP was found to be 1.98.
